Experimental data taken from patent US20250230138A1, “COMPOUNDS HAVING A T-STRUCTURE FORMED BY AT LEAST FOUR CYCLES FOR USE IN THE TREATMENT OF CANCER AND OTHER INDICATIONS” (TheRas, Inc., priority 2022, published 2025).
Where two headings read alike, the source gives them in different places.

Tests used:
[1] = test system: pAKT in BT474 cells; assay: Cell-based pAKT HTRF assay in BT474 cells; details: BT474 cells, 4 hr incubation, Compounds 10-999, read-out: pAKT inhibition IC50 in BT474 cells
Procedure, shortened: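 Cells are seeded on day 1 and dosed on day 2 with a 9-point curve (3 μM top, 3-fold). After 4 hr they are lysed and the lysate is mixed with d2- and Eu Cryptate-labelled antibodies. HTRF is read after 4–24 h at room temperature.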

[2] = target: Cys242 in human PIK3CA (157-299) (Homo sapiens (Human), UniProt P42336); assay: Covalent modification assay using MALDI-TOF MS; type: biochemical; details: 4 h reaction time point; 3.33 μM protein target, 1:7.5 protein to compound ratio (compounds 1-852)
Sequence of Cys242 in human PIK3CA (157-299) (P42336 157-299): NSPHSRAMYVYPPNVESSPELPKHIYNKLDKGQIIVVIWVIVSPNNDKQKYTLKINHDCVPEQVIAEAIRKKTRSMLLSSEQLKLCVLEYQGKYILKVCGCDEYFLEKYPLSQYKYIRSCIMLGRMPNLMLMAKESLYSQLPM
Procedure, shortened: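 Covalent adduct formation was read by linear-mode MALDI-TOF with sinapinic acid matrix, reported as modified-protein peak height divided by total protein peak heights. Reactions held PIK3CA (157-299) at 1 or 3.33 μM in HEPES/NaCl/MgCl2 buffer, pH 7.3, sampled after 15 min to 4 h at room temperature.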

## C=CC(=O)N1CC(n2cc(-c3nc(N4CCN5CCCC5C4)c4ccsc4c3-c3ccc(F)cc3OCCOC)cn2)C1 (stereo not drawn) [Compound 123]
[1]
  IC50: 100 to 1000 nM
[2]
  % of modification: A (percent of modification of PIK3CA protein ≥75%)

## C=CC(=O)N1CCc2nc(-c3nc(-c4cnn(CC(F)F)c4)c4ccsc4c3-c3ccc(F)cc3OCCOC)sc2C1 [Compound 125]
[1]
  IC50: < 100 nM
[2]
  % of modification: A (percent of modification of PIK3CA protein ≥75%)

## C=CC(=O)N1CCc2nc(-c3nc(-c4cnn(CCO)c4)c4ccsc4c3-c3ccc(F)cc3OCCOC)sc2C1 [Compound 126]
[1]
  IC50: < 100 nM
[2]
  % of modification: A (percent of modification of PIK3CA protein ≥75%)

## CC#CC(=O)N1CCc2nc(-c3nc(-c4ccc5c(c4)CCNC5)c4ccsc4c3-c3ccc(F)cc3OCCOC)sc2C1 [Compound 127]
[1]
  IC50: 1000 to 3000 nM
[2]
  % of modification: D (percent of modification <25%)

## C=CC(=O)N1CCc2nc(-c3nc(-c4ccc5c(c4)CCN(CCO)C5)c4ccsc4c3-c3ccc(F)cc3OCCOC)sc2C1 [Compound 128]
[1]
  IC50: < 100 nM
[2]
  % of modification: A (percent of modification of PIK3CA protein ≥75%)

## C/C=C/C(=O)N1CC(n2cc(-c3nc(-c4ccc5c(c4)CCNC5)c4ccsc4c3-c3ccc(F)cc3OC)cn2)C1 [Compound 129]
[1]
  IC50: > 3000 nM
[2]
  % of modification: D (percent of modification <25%)

## C=CC(=O)N1CCc2nc(-c3nc(-c4ccc5c(c4)CCNC5)c4ccsc4c3-c3ccc(F)cc3OCCO)sc2C1 [Compound 130]
[1]
  IC50: < 100 nM
[2]
  % of modification: A (percent of modification of PIK3CA protein ≥75%)

## C=CC(=O)N1CCc2nc(-c3nc(-c4ccc(=O)[nH]c4)c4ccsc4c3-c3ccc(F)cc3OCCOC)sc2C1 [Compound 131]
[1]
  IC50: < 100 nM
[2]
  % of modification: A (percent of modification of PIK3CA protein ≥75%)

## C=CC(=O)N1CCc2nc(-c3nc(-c4cnn(C5CNC5)c4)c4ccsc4c3-c3ccc(F)cc3OCCOC)sc2C1 [Compound 132, 1-[2-[4-[1-(azetidin-3-yl)pyrazol-4-yl]-7-[4-fluoro-2-(2-methoxyethoxy)phenyl]thieno[3,2-c]pyridin-6-yl]-6,7-dihydro-4H-thiazolo[5,4-c]pyridin-5-yl]prop-2-en-1-one]
[1]; Homo sapiens, BT-474
  IC50: 100 to 1000 nM
[2]
  % of modification: A (percent of modification of PIK3CA protein ≥75%)

## C=CC(=O)N1CCc2nc(-c3nc(-c4cnc(N)nc4)c4ccsc4c3-c3ccc(F)cc3OCCOC)sc2C1 [Compound 133]
[1]
  IC50: < 100 nM
[2]
  % of modification: A (percent of modification of PIK3CA protein ≥75%)

## C=CC(=O)N1CC(n2cc(-c3nc(N4CC5CNCC5C4)c4ccsc4c3-c3ccc(F)cc3OCCOC)cn2)C1 (stereo not drawn) [Compound 134]
[1]
  IC50: 1000 to 3000 nM
[2]
  % of modification: B (50%<percent of modification <75%)

## C=CC(=O)N1CCc2nc(-c3nc(-c4ccc5c(c4)CCN(C(C)C)C5)c4ccsc4c3-c3ccc(F)cc3OCCOC)sc2C1 [Compound 135]
[1]
  IC50: < 100 nM
[2]
  % of modification: A (percent of modification of PIK3CA protein ≥75%)

## C=CC(=O)N1CC(n2cc(-c3nc(-c4ccc5c(c4)CCNC5)c4ccsc4c3-c3ccc(F)cc3OC(F)F)cn2)C1 [Compound 136]
[1]
  IC50: 100 to 1000 nM
[2]
  % of modification: A (percent of modification of PIK3CA protein ≥75%)

## COc1cc(F)ccc1-c1c(-c2cnn(C3CN(C(=O)/C=C/CN(C)C)C3)c2)nc(-c2cnn(CC(F)F)c2)c2ccsc12 [Compound 137]
[1]
  IC50: 1000 to 3000 nM
[2]
  % of modification: C (25%≤percent of modification <50%)

## C=CC(=O)N1CC(n2cc(-c3nc(N4CC5(CCNCC5)C4)c4ccsc4c3-c3ccc(F)cc3OCCOC)cn2)C1 [Compound 138]
[1]
  IC50: 100 to 1000 nM
[2]
  % of modification: A (percent of modification of PIK3CA protein ≥75%)

## C=CC(=O)N1CCc2nc(-c3nc(-c4ccn(C(C)C)c(=O)c4)c4ccsc4c3-c3ccc(F)cc3OCCOC)sc2C1 [Compound 139]
[1]
  IC50: 100 to 1000 nM
[2]
  % of modification: A (percent of modification of PIK3CA protein ≥75%)

## C=CC(=O)N1CCc2nc(-c3nc(N4CCN(C(C)C)CC4)c4ccsc4c3-c3ccc(F)cc3OCCOC)sc2C1 [Compound 140]
[1]
  IC50: 100 to 1000 nM
[2]
  % of modification: A (percent of modification of PIK3CA protein ≥75%)

## C=CC(=O)N1CCc2nc(-c3nc(-c4ccnc(N)c4)c4ccsc4c3-c3ccc(F)cc3OCCOC)sc2C1 [Compound 141]
[1]
  IC50: < 100 nM
[2]
  % of modification: A (percent of modification of PIK3CA protein ≥75%)

## C=CC(=O)N1CCc2nc(-c3nc(-c4ccc(N)nc4)c4ccsc4c3-c3ccc(F)cc3OCCOC)sc2C1 [Compound 142]
[1]
  IC50: < 100 nM
[2]
  % of modification: A (percent of modification of PIK3CA protein ≥75%)

## C=CC(=O)N1CCc2nc(-c3nc(C4CCN(C(C)C)CC4)c4ccsc4c3-c3ccc(F)cc3OCCOC)sc2C1 [Compound 143, 1-(2-(7-(4-fluoro-2-(2-methoxyethoxy)phenyl)-4-(1-isopropylpiperidin-4-yl)thieno[3,2-c]pyridin-6-yl)-6,7-dihydrothiazolo[5,4-c]pyridin-5(4H)-yl)prop-2-en-1-one]
[1]; Homo sapiens, BT-474
  IC50: 100 to 1000 nM
[2]
  % of modification: A (percent of modification of PIK3CA protein ≥75%)

## C=CC(=O)N1CCc2nc(-c3nc(-c4cnn(C)c4)c4ccsc4c3-c3ccc(F)cc3OCC3CCNC(=O)C3)sc2C1 (stereo not drawn) [Compound 144, 4-[[5-fluoro-2-[4-(1-methylpyrazol-4-yl)-6-(5-prop-2-enoyl-6,7-dihydro-4H-thiazolo[5,4-c]pyridin-2-yl)thieno[3,2-c]pyridin-7-yl]phenoxy]methyl]piperidin-2-one]
[1]; Homo sapiens, BT-474
  IC50: < 100 nM
[2]
  % of modification: A (percent of modification of PIK3CA protein ≥75%)

## C=CC(=O)N1CC(n2cc(-c3nc(C4=CCC5(CC4)CNC5)c4ccsc4c3-c3ccc(F)cc3OCCOC)cn2)C1 [Compound 145]
[1]
  IC50: 1000 to 3000 nM
[2]
  % of modification: A (percent of modification of PIK3CA protein ≥75%)

## C=CC(=O)N1CCc2sc(-c3nc(-c4ccc5c(c4)CCNC5)c4ccsc4c3-c3ccc(F)cc3OCCOC)nc2C1 [Compound 146]
[1]
  IC50: < 100 nM
[2]
  % of modification: A (percent of modification of PIK3CA protein ≥75%)

## C=CC(=O)N1CC(n2cc(-c3nc(C4CCC5(CC4)CNC5)c4ccsc4c3-c3ccc(F)cc3OCCOC)cn2)C1 [Compound 147]
[1]
  IC50: 1000 to 3000 nM
[2]
  % of modification: A (percent of modification of PIK3CA protein ≥75%)

## C=CC(=O)N1CCc2nc(-c3nc(-c4ccc5c(c4)CCC(N(C)C)C5)c4ccsc4c3-c3ccc(F)cc3OCCOC)sc2C1 (stereo not drawn) [Compound 148]
[1]
  IC50: < 100 nM
[2]
  % of modification: A (percent of modification of PIK3CA protein ≥75%)

## C=CC(=O)N1CC(n2cc(-c3nc(N4CCC5(CC4)CS(=O)(=O)C5)c4ccsc4c3-c3ccc(F)cc3OCCOC)cn2)C1 [Compound 149]
[1]
  IC50: 100 to 1000 nM
[2]
  % of modification: A (percent of modification of PIK3CA protein ≥75%)

## C=CC(=O)N1CC(n2cc(-c3nc(N4CCC5(CC4)CNC(=O)C5)c4ccsc4c3-c3ccc(F)cc3OCCOC)cn2)C1 [Compound 150]
[1]
  IC50: 100 to 1000 nM
[2]
  % of modification: A (percent of modification of PIK3CA protein ≥75%)

## C=CC(=O)N1CCc2nc(-c3nc(-c4ccc5c(c4)CS(=N)(=O)C5)c4ccsc4c3-c3ccc(F)cc3OCCOC)sc2C1 (stereo not drawn) [Compound 151, 1-[2-[7-[4-fluoro-2-(2-methoxyethoxy)phenyl]-4-(2-imino-2-oxo-1,3-dihydro-2-benzothiophen-5-yl)thieno[3,2-c]pyridin-6-yl]-6,7-dihydro-4H-thiazolo[5,4-c]pyridin-5-yl]prop-2-en-1-one]
[1]; Homo sapiens, BT-474
  IC50: < 100 nM
[2]
  % of modification: A (percent of modification of PIK3CA protein ≥75%)

## C=CC(=O)N1CCc2nc(-c3nc(-c4ccc5c(c4)C(O)CC5)c4ccsc4c3-c3ccc(F)cc3OCCOC)sc2C1 (stereo not drawn) [Compound 152]
[1]
  IC50: < 100 nM
[2]
  % of modification: A (percent of modification of PIK3CA protein ≥75%)

## C=CC(=O)N1CCc2nc(-c3nc(-c4ccc5c(c4)CNC5)c4ccsc4c3-c3ccc(F)cc3OCCOC)sc2C1 [Compound 153]
[1]
  IC50: < 100 nM
[2]
  % of modification: A (percent of modification of PIK3CA protein ≥75%)

## C=CC(=O)N1CC(n2cc(-c3nc(-c4ccc5c(c4)CCNC5)c4c(c3-c3ccc(F)cc3OCCOC)CCC4)ccc2=O)C1 [Compound 154]
[1]
  IC50: < 100 nM
[2]
  % of modification: A (percent of modification of PIK3CA protein ≥75%)

## C=CC(=O)N1CCc2nc(-c3nc(-c4ccc5c(c4)CCNC5)c4ccsc4c3-c3ccc(F)cc3OC(C)C)sc2C1 [Compound 155]
[1]
  IC50: < 100 nM
[2]
  % of modification: A (percent of modification of PIK3CA protein ≥75%)

## C=CC(=O)N1CCc2nc(-c3nc(-c4ccc5c(c4)CC(N)C5)c4ccsc4c3-c3ccc(F)cc3OCCOC)sc2C1 (stereo not drawn) [Compound 156]
[1]
  IC50: < 100 nM
[2]
  % of modification: A (percent of modification of PIK3CA protein ≥75%)

## C=CC(=O)N1CC(n2cc(-c3nc(-c4ccc5c(c4)CCNC5)c4ccsc4c3-c3ccc(F)cc3OCCOC)ccc2=O)C1 [Compound 157]
[1]
  IC50: < 100 nM
[2]
  % of modification: A (percent of modification of PIK3CA protein ≥75%)

## C=CC(=O)N1CC(n2cc(-c3nc(N4CCc5n[nH]c(=O)cc5C4)c4ccsc4c3-c3ccc(F)cc3OCCOC)cn2)C1 [Compound 158]
[1]
  IC50: 100 to 1000 nM
[2]
  % of modification: A (percent of modification of PIK3CA protein ≥75%)

## C=CC(=O)N1CCc2nc(-c3nc(N4CCCC(N(C)C)C4)c4ccsc4c3-c3ccc(F)cc3OCCOC)sc2C1 (stereo not drawn) [Compound 159]
[1]
  IC50: 100 to 1000 nM
[2]
  % of modification: B (50%<percent of modification <75%)
